# Experiment: Interim pharmacokinetics, multiple-dose study (Example 5)
# Format: in vivo, human
# Protocol: Interim Pharmacokinetic results of the study were derived from plasma concentrations of 9-cis-retinyl acetate and its metabolites, measured throughout the study period at prescribed time points. The scope of this interim PK analysis encompasses samples from Cohort 1 including the placebo (n=2), 40 mg/m^2 (n=6) and 60 mg/m^2 (n=2) dose groups obtained in treatment cycles 1, 2 and 3.
# The plasma samples were analyzed by liquid chromatography-mass spectrometry-mass spectrometry (LC/MS/MS) for parent drug and potential metabolites. Noncompartmental (NCA) pharmacokinetic (PK) parameters such as AUC were obtained using the WinNonlin software with observational determination of Cmax, tmax, and duration of concentrations above baseline (TD).
structure (smiles),measurement,setting,value
"CC(=O)OC/C=C(C)/C=C/C=C(C)\C=C\C1=C(C)CCCC1(C)C [9-cis-Retinyl acetate, (2E, 4E, 6Z, 8E)-3,7-dimethyl-9-(2,6,6-trimethylcyclohex-1-en-1-yl) nona-2,4,6,8-tetraen-1-yl acetate]",accumulation of 9-cis-retinol and retinyl ester metabolites on multiple-dosing,"40 mg/m^2, repeated seven day cycles",slight to modest accumulation
same,accumulation of metabolites from cycle to cycle,"40 mg/m^2, Cycles 1, 2 and 3",no accumulation being observed from cycle to cycle
same,plasma concentrations,"Cohort 1, 40 and 60 mg/m^2, cycles 1-3",low and transient

# — patent US10828267B2, “Therapeutic regimens and methods for improving visual function in visual disorders associated with an endogenous retinoid deficiency” (RETINAGENIX THERAPEUTICS, INC., priority 2012, dated 2020)
